The text below walks through data of US4328334A, “11-Aza-10-deoxo-10-dihydroerythromycin A and derivatives thereof as well as a process for their preparation” (PLIVA Pharmaceutical and Chemical Works, priority 1979, dated 1982).

Data set [1] relates to Staphylococcus aureus ATCC 6538-P. Put plainly: in vitro minimum inhibitory concentration, Staphylococcus aureus ATCC 6538-P. It counts as cell-based. The following applies: ATCC6538; in vitro, Staphylococcus aureus ATCC 6538-P; read-out: minimum inhibitory concentrations (MIC).
The subject of data set [2] is Streptococcus faecalis ATCC 8043. Put plainly: in vitro minimum inhibitory concentration, Streptococcus faecalis ATCC 8043. The conditions noted are these: Enterococcus faecalis. It counts as cell-based.
Data set [3] relates to Staphylococcus epidermidis ATCC 12228. Put plainly: in vitro minimum inhibitory concentration, Staphylococcus epidermidis ATCC 12228. Type of data set: cell-based. The conditions noted are these: ATCC12228; in vitro, Staphylococcus epidermidis ATCC 12228; read-out: minimum inhibitory concentrations (MIC).
In the next data set the test system is Sarcina lutea ATCC 9341. As to the kind of experiment: in vitro minimum inhibitory concentration, Sarcina lutea ATCC 9341. The conditions noted are these: Micrococcus luteus, ATCC9341, read-out: minimum inhibitory concentrations (MIC). Type of data set: cell-based.
In data set [4] the test system is Bacillus cereus var. mycoides ATCC 11778. Put plainly: microbe, parasite or virus in culture. The following applies: ATCC11778, read-out: minimum inhibitory concentrations (MIC). Type of data set: cell-based.
Data set [5] has as its system Bacillus subtilis ATCC 6633. Put plainly: in vitro minimum inhibitory concentration, Bacillus subtilis ATCC 6633. It counts as cell-based. The following applies: ATCC6633; in vitro, Bacillus subtilis ATCC 6633; read-out: minimum inhibitory concentrations (MIC).
Data set [6] deals with Micrococcus flavus ATCC 10240. As to the kind of experiment: in vitro minimum inhibitory concentration, Micrococcus flavus ATCC 10240. It counts as cell-based.
Data set [7] in a line: pKb in dimethyl formamide-water. Type of data set: physicochemical. The following applies: dmf (66% v/v)-water; dimethyl formamide (66% v/v)-water.
Data set [8] deals with Staphylococcus aureus ATCC 6538-P. Put plainly: stability in acid medium: MIC after exposure to 1 N HCl. Type of data set: cell-based. The following applies: for MIC: ATCC6538, pH 1.2, Staphylococcus aureus ATCC 6538-P.
The mark [9] stands for this setting: ATCC8043, in vitro, Streptococcus faecalis ATCC 8043, read-out: minimum inhibitory concentrations (MIC).
Where [10] appears, read: ATCC10240, in vitro, Micrococcus flavus ATCC 10240, read-out: minimum inhibitory concentrations (MIC).
Setting [11] is: 1 N HCl, pH 1.2, 30 minutes to 6 hours.

Converted amounts (≈) assume the structure as drawn. Like-named read-outs stand apart in the source and are kept apart here.

Consider `CC[C@H]1OC(=O)[C@H](C)[C@@H](O[C@H]2C[C@@](C)(OC)[C@@H](OC(C)=O)[C@H](C)O2)[C@H](C)[C@@H](O[C@@H]2O[C@H](C)C[C@H](N(C)C)[C@H]2OC(C)=O)[C@](C)(O)C[C@@H](C)CN(C(C)=O)[C@H](C)[C@@H](O)[C@]1(C)O` [Compound III, 2',4"-N-triacetyl-11-aza-10-deoxo-10-dihydroerythromycin A], for which the MIC in data set [1] is 150 µg/mL (≈ 174 µM); in [2] (setting [9]), 125 µg/mL (≈ 145 µM); in data set [3], 200 µg/mL (≈ 232 µM); in the data set with Sarcina lutea ATCC 9341, 10 µg/mL (≈ 11.6 µM); in [4] it was 200 µg/mL (≈ 232 µM); in data set [5], 175 µg/mL (≈ 203 µM). In [6] (setting [10]), the MIC amounted to 50 µg/mL (≈ 58.1 µM).

With `CC[C@H]1OC(=O)[C@H](C)[C@@H](O[C@H]2C[C@@](C)(OC)[C@@H](OC(C)=O)[C@H](C)O2)[C@H](C)[C@@H](O[C@@H]2O[C@H](C)C[C@H](N(C)C)[C@H]2OC(C)=O)[C@](C)(O)C[C@@H](C)CN(C(C)=O)[C@H](C)[C@@H](OC(C)=O)[C@]1(C)O` [Compound IV, 2',4",13,N-tetraacetyl-11-aza-10-deoxo-10-dihydroerythromycin A], the MIC in data set [1] amounted to 200 µg/mL (≈ 221 µM); in [2] (ATCC8043, read-out: minimum inhibitory concentrations (MIC)) it was 175 µg/mL (≈ 194 µM); in data set [3], 200 µg/mL (≈ 221 µM); in the data set with Sarcina lutea ATCC 9341, 10 µg/mL (≈ 11.1 µM); in data set [4] it was 175 µg/mL (≈ 194 µM); in [5], 200 µg/mL (≈ 221 µM). In data set [6] (Micrococcus flavus, ATCC10240, read-out: minimum inhibitory concentrations (MIC)), the MIC came to 175 µg/mL (≈ 194 µM).

On to `CCC(=O)N1C[C@H](C)C[C@@](C)(O)[C@H](O[C@@H]2O[C@H](C)C[C@H](N(C)C)[C@H]2O)[C@@H](C)[C@H](O[C@H]2C[C@@](C)(OC)[C@@H](O)[C@H](C)O2)[C@@H](C)C(=O)O[C@H](CC)[C@@](C)(O)[C@H](O)[C@H]1C` [Compound V, N-propionyl-11-aza-10-deoxo-10-dihydroerythroycin A], for which the pKa – broadly, the pH at which an ionisable group is half protonated – in data set [7] was determined as 8.6.

In the case of `CC[C@H]1OC(=O)[C@H](C)[C@@H](O[C@H]2C[C@@](C)(OC)[C@@H](O)[C@H](C)O2)[C@H](C)[C@@H](O[C@@H]2O[C@H](C)C[C@H](N(C)C)[C@H]2O)[C@](C)(O)C[C@@H](C)CN[C@H](C)[C@H]2OC(=O)O[C@@]21C` [Compound VI, 11-aza-10-deoxo-10-dihydroerythromycin A cyclic 13,14-carbonate], the MIC in [1] was 1 µg/mL (≈ 1.31 µM); in [2] (setting [9]), 0.05 µg/mL (≈ 0.0657 µM); in data set [3] it was 2.5 µg/mL (≈ 3.29 µM); in [8] (exposure time 0 hours) it was 1 µg/mL (≈ 1.31 µM); in data set [8] (exposure time 1/2 hour, 1 N HCl) it was 1 µg/mL (≈ 1.31 µM); in data set [8] (exposure time 1 hour, 1 N HCl), 1 µg/mL (≈ 1.31 µM). For the same molecule, the MIC in data set [8] (exposure time 2 hours, 1 N HCl) was 2.5 µg/mL (≈ 3.29 µM); in data set [8] (exposure time 3 hours, 1 N HCl), 2.5 µg/mL (≈ 3.29 µM); in [8] (exposure time 6 hours, 1 N HCl), 2.5 µg/mL (≈ 3.29 µM); in the data set with Sarcina lutea ATCC 9341 it was 0.1 µg/mL (≈ 0.131 µM); in data set [4], 2.5 µg/mL (≈ 3.29 µM); in data set [5] it was 0.5 µg/mL (≈ 0.657 µM). For the same molecule, the MIC in data set [6] (setting [10]) was 0.5 µg/mL (≈ 0.657 µM). In addition, the “stability in acid medium compared with erythromycin A” value in data set [8] (setting [11]) is “significantly more stable than erythromycin A”. In addition, in data set [8] (setting [11]), the “stability in acid medium compared with erythromycin A oxime” value is reported as “within the range of that of the starting antibioticum erythromycin A oxime”.
